Data published in PMC10709440, “High-throughput ligand profile characterization in novel cell lines expressing seven heterologous insect olfactory receptors for the detection of volatile plant biomarkers” (Scientific Reports, 2023).
Read-outs that look alike come from different tables or passages of the source.

How the values were obtained:
OR49b = system: OR49b; design: method as in earlier work; conditions: DoOR database value; ref DoOR; cited from earlier work
OR85b = system: OR85b; design: method as in earlier work; conditions: DoOR database value; ref DoOR; cited from earlier work
OR13a = system: OR13a; design: method as in earlier work; conditions: DoOR database value; ref DoOR; cited from earlier work
OR47a = system: OR47a; design: method as in earlier work; conditions: DoOR database value; ref DoOR; cited from earlier work
OR10a = system: OR10a; design: method as in earlier work; conditions: DoOR database value; ref DoOR; cited from earlier work
OR98a = system: OR98a; design: method as in earlier work; conditions: DoOR database value; ref DoOR; cited from earlier work
Drosophila OR98a = target: T1, Drosophila OR98a (Drosophila melanogaster, UniProt Q9VAZ3); assay: Calcium ion fluorescence (GCaMP6) assay, OR98a stable HEK293 cell line; type: cell-based; conditions: for DF norm AVERAGE OR98a: threshold 0.05, below shown as 0
T1 construct: expressed in transfected cells
T1 sequence (Q9VAZ3 1-397): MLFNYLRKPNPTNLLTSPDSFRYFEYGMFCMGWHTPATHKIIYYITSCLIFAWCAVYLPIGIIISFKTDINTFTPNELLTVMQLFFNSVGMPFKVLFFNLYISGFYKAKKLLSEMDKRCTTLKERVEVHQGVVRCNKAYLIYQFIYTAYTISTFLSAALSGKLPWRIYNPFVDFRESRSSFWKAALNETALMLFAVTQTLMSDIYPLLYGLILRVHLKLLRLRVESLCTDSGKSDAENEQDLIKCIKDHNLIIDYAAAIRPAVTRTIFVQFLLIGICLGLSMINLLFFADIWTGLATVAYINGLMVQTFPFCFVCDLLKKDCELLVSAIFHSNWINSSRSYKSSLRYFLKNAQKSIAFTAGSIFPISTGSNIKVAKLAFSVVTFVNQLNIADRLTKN
T1 sequence (Q9VNB5 1-486 partner): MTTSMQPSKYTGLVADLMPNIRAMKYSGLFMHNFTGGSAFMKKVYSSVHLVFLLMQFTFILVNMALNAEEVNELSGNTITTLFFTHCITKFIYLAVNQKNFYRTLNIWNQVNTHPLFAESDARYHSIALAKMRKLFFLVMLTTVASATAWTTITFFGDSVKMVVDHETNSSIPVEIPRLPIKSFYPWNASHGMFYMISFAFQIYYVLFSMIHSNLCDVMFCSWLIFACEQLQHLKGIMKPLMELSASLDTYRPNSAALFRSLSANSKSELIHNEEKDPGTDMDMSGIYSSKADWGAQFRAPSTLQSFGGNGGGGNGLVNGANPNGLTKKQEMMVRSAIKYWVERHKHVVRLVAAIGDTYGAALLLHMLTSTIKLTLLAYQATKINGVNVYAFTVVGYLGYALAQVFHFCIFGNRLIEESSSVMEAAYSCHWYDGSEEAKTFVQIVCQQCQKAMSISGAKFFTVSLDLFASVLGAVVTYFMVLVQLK
Method in brief: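 Responses are VUAA1-normalized ΔF: each VOC-evoked calcium signal, (FMAX−F0)/F0 over 30 s after injection, divided by the same line's mean 50 µM VUAA1 response. Cells were doxycycline-induced HEK293 with GCaMP6 and the cognate Drosophila OR, in HEPES buffer pH 7.3; ligands tested 0.01–100 μM.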

[1] = HEK293, read-out: Average response
[2] = HEK293, read-out: OR98a response (VUAA1-normalized response)

In the case of `CC1=CCC2CC1C2(C)C` (stereo not drawn) [alpha-pinene], the “OR49b DoOR response” value (OR49b) is given as 0.018, the “OR85b DoOR response” value (OR85b) is given as 0.15 and the “OR13a DoOR response” value (OR13a) is given as 0.10. The “OR47a DoOR response” value (OR47a) was 0.035, the “OR10a DoOR response” value (OR10a) was 0.004 and the “OR98a DoOR response” value (OR98a) was 0.43. For the same compound, the activation at 1 µM (Drosophila OR98a; [1]) was 0%, the activation at 10 µM (Drosophila OR98a; [1]) was 0% and the activation at 100 µM (Drosophila OR98a; [1]) was 0%. The activation at 1 µM (Drosophila OR98a; [2]) was 0%, the activation at 10 µM (Drosophila OR98a; [2]) was 0% and the activation at 100 µM (Drosophila OR98a; [2]) was 0%. For the same compound, the “DF norm AVERAGE OR98a” value (Drosophila OR98a; ligand concentration 1 (unit not given)) was 0, the “DF norm AVERAGE OR98a” value (Drosophila OR98a; ligand concentration 10 (unit not given)) was 0 and the “DF norm AVERAGE OR98a” value (Drosophila OR98a; ligand concentration 100 (unit not given)) was 0.
